Organism: Rattus norvegicus
Experiment: Open TG-GATES - Regimen: Single
Format: toxicity, organism-based, Sprague-Dawley
Design: regimen Single, gender Male, age 6 weeks
Settings: in vivo, ip, 0 mg/kg, route intraperitoneal injection, dose level Control; for APTT / Bas / Eos / Fbg / Hb / Ht / Lym / MCH / MCHC / MCV / Mono / Neu / PT / Plat / RBC / Ret / WBC: tissue Blood; for KIDNEY_L / KIDNEY_R / KIDNEY_TOTAL: tissue Kidney; for LIVER: tissue Liver; for A/G / ALP / ALT / AST / BUN / CRE / Ca / Cl / DBIL / GLC / IP / K / LDH / Na / PL / RALB / TBIL / TC / TG / TP / gamma-GTP: tissue Plasma

SMILES: N[C@H]1C(O)O[C@H](CO)[C@@H](O)[C@@H]1O (some centres not stated) [GLUCOSAMINE]
- TERMINAL_BW (3 h): 190.4 g
- APTT (3 h): 17.1 s
- Bas (3 h): 0.2%
- Eos (3 h): 0.6%
- Fbg (3 h): 273.4 mg/dL
- Hb (3 h): 12.6 g/dL
- Ht (3 h): 38.6%
- Lym (3 h): 73.6%
- MCH (3 h): 20.7 pg
- MCHC (3 h): 32.7%
- MCV (3 h): 63.4 fL
- Mono (3 h): 3.8%
- Neu (3 h): 20.2%
- PT (3 h): 15.5 s
- Plat (3 h): 111.6 x10_4/uL
- RBC (3 h): 609.4 x10_4/ul
- Ret (3 h): 9.4%
- WBC (3 h): 98.5 x10_2/uL
- KIDNEY_L (3 h): 0.9 g
- KIDNEY_R (3 h): 0.9 g
- KIDNEY_TOTAL (3 h): 1.7 g
- LIVER (3 h): 8.4 g
- A/G (3 h): 0.9
- ALP (3 h): 1386.8 IU/L
- ALT (3 h): 42.2 IU/L
- AST (3 h): 77 IU/L
- BUN (3 h): 9.6 mg/dL
- CRE (3 h): 0.2 mg/dL
- Ca (3 h): 10.5 mg/dL
- Cl (3 h): 106.4 meq/L
- DBIL (3 h): 0.01 mg/dL
- GLC (3 h): 175.4 mg/dL
- IP (3 h): 9.4 mg/dL
- K (3 h): 4.4 meq/L
- LDH (3 h): 61.2 IU/L
- Na (3 h): 142.2 meq/L
- PL (3 h): 141.6 mg/dL
- RALB (3 h): 2.4 g/dL
- TBIL (3 h): 0.052 mg/dL
- TC (3 h): 79.2 mg/dL
- TG (3 h): 47.8 mg/dL
- TP (3 h): 5.2 g/dL
- gamma-GTP (3 h): 0.8 IU/L
- TERMINAL_BW (6 h): 188.5 g
- APTT (6 h): 18.8 s
- Bas (6 h): 0.2%
- Eos (6 h): 0%
- Fbg (6 h): 298.6 mg/dL
- Hb (6 h): 12.9 g/dL
- Ht (6 h): 39.6%
- Lym (6 h): 62.6%
- MCH (6 h): 21.3 pg
- MCHC (6 h): 32.6%
- MCV (6 h): 65.5 fL
- Mono (6 h): 2%
- Neu (6 h): 34%
- PT (6 h): 15.8 s
- Plat (6 h): 113.1 x10_4/uL
- RBC (6 h): 604.2 x10_4/ul
- Ret (6 h): 9.4%
- WBC (6 h): 79.2 x10_2/uL
- KIDNEY_L (6 h): 0.8 g
- KIDNEY_R (6 h): 0.8 g
- KIDNEY_TOTAL (6 h): 1.6 g
- LIVER (6 h): 7.8 g
- A/G (6 h): 0.9
- ALP (6 h): 1323.4 IU/L
- ALT (6 h): 36.2 IU/L
- AST (6 h): 70.2 IU/L
- BUN (6 h): 8.2 mg/dL
- CRE (6 h): 0.2 mg/dL
- Ca (6 h): 10.3 mg/dL
- Cl (6 h): 106.8 meq/L
- DBIL (6 h): 0.008 mg/dL
- GLC (6 h): 178.6 mg/dL
- IP (6 h): 9.8 mg/dL
- K (6 h): 4 meq/L
- LDH (6 h): 51.8 IU/L
- Na (6 h): 142.4 meq/L
- PL (6 h): 144 mg/dL
- RALB (6 h): 2.5 g/dL
- TBIL (6 h): 0.052 mg/dL
- TC (6 h): 82.8 mg/dL
- TG (6 h): 41.4 mg/dL
- TP (6 h): 5.3 g/dL
- gamma-GTP (6 h): 1 IU/L
- TERMINAL_BW (9 h): 185.1 g
- APTT (9 h): 17 s
- Bas (9 h): 0.2%
- Eos (9 h): 0.8%
- Fbg (9 h): 298.8 mg/dL
- Hb (9 h): 13 g/dL
- Ht (9 h): 40.1%
- Lym (9 h): 66.6%
- MCH (9 h): 21.2 pg
- MCHC (9 h): 32.5%
- MCV (9 h): 65.3 fL
- Mono (9 h): 2.4%
- Neu (9 h): 29.6%
- PT (9 h): 15.7 s
- Plat (9 h): 109.5 x10_4/uL
- RBC (9 h): 615 x10_4/ul
- Ret (9 h): 9.4%
- WBC (9 h): 85.2 x10_2/uL
- KIDNEY_L (9 h): 0.8 g
- KIDNEY_R (9 h): 0.8 g
- KIDNEY_TOTAL (9 h): 1.6 g
- LIVER (9 h): 7.2 g
- A/G (9 h): 0.9
- ALP (9 h): 1439.4 IU/L
- ALT (9 h): 37.6 IU/L
- AST (9 h): 78 IU/L
- BUN (9 h): 7.6 mg/dL
- CRE (9 h): 0.2 mg/dL
- Ca (9 h): 10.4 mg/dL
- Cl (9 h): 107.4 meq/L
- DBIL (9 h): 0.014 mg/dL
- GLC (9 h): 157.4 mg/dL
- IP (9 h): 10.3 mg/dL
- K (9 h): 3.6 meq/L
- LDH (9 h): 51.6 IU/L
- Na (9 h): 143.2 meq/L
- PL (9 h): 131.4 mg/dL
- RALB (9 h): 2.5 g/dL
- TBIL (9 h): 0.078 mg/dL
- TC (9 h): 79.4 mg/dL
- TG (9 h): 18.4 mg/dL
- TP (9 h): 5.3 g/dL
- gamma-GTP (9 h): 0.6 IU/L
- TERMINAL_BW (24 h): 201.5 g
- APTT (24 h): 17.2 s
- Bas (24 h): 0.2%
- Eos (24 h): 1.4%
- Fbg (24 h): 293.6 mg/dL
- Hb (24 h): 12.9 g/dL
- Ht (24 h): 38.9%
- Lym (24 h): 77.2%
- MCH (24 h): 20.8 pg
- MCHC (24 h): 33.1%
- MCV (24 h): 62.6 fL
- Mono (24 h): 2.8%
- Neu (24 h): 17.2%
- PT (24 h): 16.2 s
- Plat (24 h): 117.8 x10_4/uL
- RBC (24 h): 622.4 x10_4/ul
- Ret (24 h): 8.9%
- WBC (24 h): 96.4 x10_2/uL
- KIDNEY_L (24 h): 0.9 g
- KIDNEY_R (24 h): 0.9 g
- KIDNEY_TOTAL (24 h): 1.8 g
- LIVER (24 h): 9 g
- A/G (24 h): 0.9
- ALP (24 h): 1430 IU/L
- ALT (24 h): 39.8 IU/L
- AST (24 h): 76.2 IU/L
- BUN (24 h): 13.6 mg/dL
- CRE (24 h): 0.2 mg/dL
- Ca (24 h): 10.4 mg/dL
- Cl (24 h): 105.8 meq/L
- DBIL (24 h): 0.012 mg/dL
- GLC (24 h): 185.2 mg/dL
- IP (24 h): 8.3 mg/dL
- K (24 h): 4.3 meq/L
- LDH (24 h): 108.2 IU/L
- Na (24 h): 142 meq/L
- PL (24 h): 151.6 mg/dL
- RALB (24 h): 2.5 g/dL
- TBIL (24 h): 0.04 mg/dL
- TC (24 h): 80.4 mg/dL
- TG (24 h): 69.8 mg/dL
- TP (24 h): 5.5 g/dL
- gamma-GTP (24 h): 0.4 IU/L
